{"source": "ChEMBL document CHEMBL3526083", "about": "“Prediction of relative in vivo metabolite exposure from in vitro data using two model drugs: dextromethorphan and omeprazole” (Drug Metab Dispos, 2012)", "key": {"[1]": {"biological_target": "T1, UDP-glucuronosyltransferase 1A3 (Homo sapiens, UniProt P35503)", "T1 sequence (P35503 whole entry)": "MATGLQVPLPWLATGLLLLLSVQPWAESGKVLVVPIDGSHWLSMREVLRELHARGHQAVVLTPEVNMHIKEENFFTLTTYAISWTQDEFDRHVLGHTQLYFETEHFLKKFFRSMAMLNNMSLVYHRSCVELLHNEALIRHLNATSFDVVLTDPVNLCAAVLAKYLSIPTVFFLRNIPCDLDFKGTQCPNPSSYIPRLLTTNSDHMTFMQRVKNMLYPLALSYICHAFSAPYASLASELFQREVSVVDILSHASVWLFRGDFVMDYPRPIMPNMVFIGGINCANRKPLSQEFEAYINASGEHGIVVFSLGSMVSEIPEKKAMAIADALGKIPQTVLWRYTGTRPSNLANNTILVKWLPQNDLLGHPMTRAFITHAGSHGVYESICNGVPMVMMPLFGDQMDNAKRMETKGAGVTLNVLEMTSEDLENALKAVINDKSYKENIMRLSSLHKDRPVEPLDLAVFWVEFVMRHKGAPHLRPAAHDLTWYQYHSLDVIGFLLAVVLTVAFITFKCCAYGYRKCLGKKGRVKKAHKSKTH", "assay": "Drug metabolism assessed as recombinat UGT1A3 (unknown origin) -mediated dextrophan-O-glucuronide formation", "type": "ADME"}, "Liver microsome [2]": {"system": "Liver microsome", "assay": "Drug metabolism in human liver microsomes assessed as 3-hydroxymorphinan formation measured as plasma fraction unbound", "type": "ADME, cell-free"}, "[3]": {"biological_target": "T2, UDP-glucuronosyltransferase 1A10 (Homo sapiens, UniProt Q9HAW8)", "T2 sequence (Q9HAW8 whole entry)": "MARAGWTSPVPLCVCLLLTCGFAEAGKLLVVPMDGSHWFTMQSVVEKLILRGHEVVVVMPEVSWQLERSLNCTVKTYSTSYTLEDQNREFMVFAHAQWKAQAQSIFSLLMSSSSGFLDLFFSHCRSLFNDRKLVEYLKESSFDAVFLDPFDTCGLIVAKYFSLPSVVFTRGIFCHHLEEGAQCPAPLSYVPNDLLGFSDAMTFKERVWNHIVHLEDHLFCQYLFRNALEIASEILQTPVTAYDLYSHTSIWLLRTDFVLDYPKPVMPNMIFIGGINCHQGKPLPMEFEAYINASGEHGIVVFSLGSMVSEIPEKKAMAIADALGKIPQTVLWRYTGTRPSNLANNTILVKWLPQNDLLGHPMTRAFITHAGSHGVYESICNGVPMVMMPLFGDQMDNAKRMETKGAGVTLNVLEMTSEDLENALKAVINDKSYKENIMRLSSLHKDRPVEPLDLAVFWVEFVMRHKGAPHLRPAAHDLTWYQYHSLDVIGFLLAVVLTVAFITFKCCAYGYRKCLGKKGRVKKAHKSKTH", "assay": "Drug metabolism assessed as recombinat UGT1A10 (unknown origin) -mediated dextrophan-O-glucuronide formation", "type": "ADME"}, "[4]": {"biological_target": "T3, UDP-glucuronosyltransferase 1A9 (Homo sapiens, UniProt O60656)", "T3 sequence (O60656 whole entry)": "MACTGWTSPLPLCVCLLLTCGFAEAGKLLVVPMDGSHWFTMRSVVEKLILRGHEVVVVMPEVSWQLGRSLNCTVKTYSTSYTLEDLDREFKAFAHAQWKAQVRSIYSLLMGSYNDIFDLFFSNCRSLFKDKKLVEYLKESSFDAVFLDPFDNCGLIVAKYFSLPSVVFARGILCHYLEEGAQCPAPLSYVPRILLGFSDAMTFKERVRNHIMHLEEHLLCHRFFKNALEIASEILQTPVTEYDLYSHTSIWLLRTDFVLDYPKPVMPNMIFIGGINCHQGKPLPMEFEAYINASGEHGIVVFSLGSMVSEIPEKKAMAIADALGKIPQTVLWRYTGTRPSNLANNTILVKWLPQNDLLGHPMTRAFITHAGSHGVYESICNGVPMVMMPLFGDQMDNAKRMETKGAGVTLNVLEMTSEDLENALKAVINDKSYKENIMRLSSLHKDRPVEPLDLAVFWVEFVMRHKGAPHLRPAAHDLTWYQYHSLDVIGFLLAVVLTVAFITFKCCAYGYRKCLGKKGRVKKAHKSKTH", "assay": "Drug metabolism assessed as recombinat UGT1A9 (unknown origin) -mediated dextrophan-O-glucuronide formation", "type": "ADME"}, "Homo sapiens": {"system": "Homo sapiens", "assay": "Ratio of AUC for compound to dexttomethorphan in human treated with 30 to 60 mg, po dexttomethorphan", "type": "ADME, organism-based", "conditions": "in vivo"}, "[5]": {"biological_target": "T4, UDP-glucuronosyltransferase 2B15 (Homo sapiens, UniProt P54855)", "T4 sequence (P54855 whole entry)": "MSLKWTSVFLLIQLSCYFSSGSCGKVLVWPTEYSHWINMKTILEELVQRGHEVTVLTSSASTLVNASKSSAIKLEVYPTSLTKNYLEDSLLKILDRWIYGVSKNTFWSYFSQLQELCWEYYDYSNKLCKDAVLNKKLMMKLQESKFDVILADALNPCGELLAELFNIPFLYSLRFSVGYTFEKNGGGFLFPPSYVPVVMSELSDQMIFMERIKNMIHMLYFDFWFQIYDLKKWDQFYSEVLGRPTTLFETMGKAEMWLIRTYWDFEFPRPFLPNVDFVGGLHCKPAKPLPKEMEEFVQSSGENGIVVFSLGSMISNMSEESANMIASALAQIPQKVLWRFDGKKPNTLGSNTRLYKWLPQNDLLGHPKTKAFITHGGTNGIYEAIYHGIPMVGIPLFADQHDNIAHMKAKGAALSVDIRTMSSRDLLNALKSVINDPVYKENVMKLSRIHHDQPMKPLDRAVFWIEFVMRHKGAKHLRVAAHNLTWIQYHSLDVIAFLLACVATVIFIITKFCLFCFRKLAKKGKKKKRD", "assay": "Drug metabolism assessed as recombinat UGT2B15 (unknown origin) -mediated dextrophan-O-glucuronide formation", "type": "ADME"}, "Liver microsome [6]": {"system": "Liver microsome", "assay": "Drug metabolism in human liver microsomes assessed as dextrophan-O-glucuronide formation measured per mg of microsomal protein", "type": "ADME"}, "Liver microsome [7]": {"system": "Liver microsome", "assay": "Drug metabolism in human liver microsomes assessed as 3-hydroxymorphinan formation measured per mg of microsomal protein", "type": "ADME"}, "[8]": {"biological_target": "T5, UDP-glucuronosyltransferase 2B4 (Homo sapiens, UniProt P06133)", "T5 sequence (P06133 whole entry)": "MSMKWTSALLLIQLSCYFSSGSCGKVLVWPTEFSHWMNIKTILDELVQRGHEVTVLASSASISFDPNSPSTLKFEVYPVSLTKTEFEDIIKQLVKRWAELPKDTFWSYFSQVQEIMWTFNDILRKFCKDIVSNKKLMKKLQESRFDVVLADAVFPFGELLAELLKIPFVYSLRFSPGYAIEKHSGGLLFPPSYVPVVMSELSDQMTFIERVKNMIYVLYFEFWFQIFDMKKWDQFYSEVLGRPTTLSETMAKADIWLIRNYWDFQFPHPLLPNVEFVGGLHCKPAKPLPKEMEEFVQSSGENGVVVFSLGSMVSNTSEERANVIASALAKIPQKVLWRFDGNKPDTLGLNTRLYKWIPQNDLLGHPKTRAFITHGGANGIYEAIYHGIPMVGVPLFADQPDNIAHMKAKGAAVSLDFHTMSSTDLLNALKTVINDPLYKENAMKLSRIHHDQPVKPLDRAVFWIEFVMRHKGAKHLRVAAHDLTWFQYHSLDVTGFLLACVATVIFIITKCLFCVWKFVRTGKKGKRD", "assay": "Drug metabolism assessed as recombinat UGT2B4 (unknown origin) -mediated dextrophan-O-glucuronide formation", "type": "ADME"}}, "data": [{"smiles": "CN1CC[C@@]23CCCC[C@@H]2[C@@H]1Cc1ccc(O)cc13", "note": "[DEXTRORPHAN]", "values": [{"measurement": "Drug metabolism", "setting": "[1]", "value": "metabolite_not_detected"}, {"measurement": "Fu", "setting": "Liver microsome [2]", "value": 0.55}, {"measurement": "Drug metabolism", "setting": "[3]", "value": "metabolite_not_detected"}, {"measurement": "Drug metabolism", "setting": "[4]", "value": "metabolite_not_detected"}, {"measurement": "Ratio AUC", "setting": "Homo sapiens", "value": 0.61}, {"measurement": "Drug metabolism", "setting": "[5]", "value": "metabolite_detected"}, {"measurement": "Vmax", "setting": "Liver microsome [6]", "value": 2, "unit": "nmol/min"}, {"measurement": "Vmax", "setting": "Liver microsome [7]", "value": 0.8, "unit": "nmol/min"}, {"measurement": "Drug metabolism", "setting": "[8]", "value": "metabolite_detected"}]}]}
